Test systems include ACHN; HCT-116; COLO 205; OVCAR-5; SK-OV-3; HCT-15; A549; NCI-H460; LOX IMVI; HOP-92; A498; IGROV-1; SNB-19; SNB-75; HCC 2998; MOLT-4; PC-3; MDA-MB-231.
Common to all, as to experiment: NCI tumour cell line growth inhibition, 48 h

SMILES strings stand for the structures.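 Where inhibition never reached the appropriate level, the endpoint shown equals the highest concentration tested. Otherwise, values were interpolated linearly from a five-concentration, 48-hour dose response in 96-well plates. GI50 is the concentration that inhibits growth by half.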 The source made the active and inactive calls. No stated cut-off is given here; in the data, active = GI50 up to about 1.1 µM and inactive = higher.

As to `O=C1CCCCCCCCCCOC(=O)CCCCCCCCCCO1`, the GI50 with ACHN was > 100 µM (inactive); in the assay with HCT-116, > 100 µM (inactive); in the assay with COLO 205, > 100 µM (inactive); in the assay with OVCAR-5, > 100 µM (inactive); in the assay on SK-OV-3, > 100 µM (inactive); in the assay with HCT-15, over 100 µM. Further, the GI50 with A549, in the assay with NCI-H460, in the assay on LOX IMVI, with HOP-92, with A498 and in the assay on IGROV-1 was > 100 µM (inactive) throughout. In addition, the GI50 in the assay on SNB-19, in the assay on SNB-75 and in the assay with HCC 2998 was > 100 µM (inactive) throughout.
In the case of `CC(=O)O[C@H]1CC[C@@]2(C)[C@H](CC[C@@H]3[C@@H]2CC[C@]2(C)[C@@H](c4ccc(=O)oc4)C[C@H]4O[C@]342)C1`, the GI50 with HCT-116 is 0.472 µM (active); in the assay on COLO 205, 3.15 µM (inactive); in the assay with OVCAR-5 it was 4.8 µM (inactive); with SK-OV-3, 1.83 µM (inactive); in the assay with HCT-15, 1.08 µM; in the assay on A549, 0.213 µM (active). For the same compound, the GI50 in the assay with NCI-H460 was 0.212 µM (active); in the assay on MOLT-4 it was 0.237 µM (active); with LOX IMVI, 0.904 µM (active); with HOP-92, 0.92 µM (active); with A498 it was 0.69 µM (active); with IGROV-1, 1.08 µM (active). Moreover, the results for the GI50 with SNB-19, in the assay on SNB-75 and in the assay on HCC 2998 were 1.82 µM (inactive), 0.708 µM (active) and 1.33 µM (inactive), respectively.
On to `CC(=O)NC1=C(C)C(=O)c2c(nc3n2CCC3OC(=O)c2ccccc2)C1=O` (centres undefined), for which the GI50 with ACHN was 3.04 µM (inactive); with HCT-116, 1.94 µM (inactive); in the assay with COLO 205, 4 µM (inactive); in the assay with OVCAR-5, 1.99 µM (inactive); in the assay with SK-OV-3 it was 2.03 µM (inactive); in the assay on A549, 1.7 µM (inactive). Also, the GI50 is 2.37 µM (inactive) in the assay with NCI-H460; 1.99 µM (inactive) in the assay on MOLT-4; 1.51 µM (inactive) with LOX IMVI; 1.9 µM (inactive) with HOP-92; 12.7 µM (inactive) in the assay on A498; 2.08 µM (inactive) in the assay with IGROV-1. Further, the results for the GI50 in the assay with SNB-19, in the assay on SNB-75 and with HCC 2998 were 2.69 µM (inactive), 3.58 µM (inactive) and 4.81 µM (inactive), respectively.
For the compound `Nc1ccc2c(c1)C1=NNC(=O)CC1C2` (centres undefined), the GI50 in the assay on HCT-116 was > 100 µM (inactive); with COLO 205, > 100 µM (inactive); in the assay with OVCAR-5, > 92.5 µM (inactive); with SK-OV-3, > 100 µM (inactive); in the assay on HCT-15, over 100 µM; in the assay with A549, > 100 µM (inactive). Moreover, the GI50 in the assay with NCI-H460 was > 100 µM (inactive); in the assay on LOX IMVI it was > 100 µM (inactive); with HOP-92, > 100 µM (inactive); in the assay on A498, 60.4 µM (inactive); with IGROV-1, > 100 µM (inactive); with SNB-19 it was > 100 µM (inactive). Besides, the GI50 in the assay with SNB-75 was 78.5 µM (inactive); in the assay on HCC 2998, > 74.1 µM (inactive).
For `Cc1nc2ccccc2c(=O)n1CC(=O)O`, the GI50 in the assay with HCT-116 is > 100 µM (inactive); with COLO 205 it was > 100 µM (inactive); in the assay on OVCAR-5 it was > 100 µM (inactive); with SK-OV-3, > 100 µM (inactive); in the assay with HCT-15 it was over 100 µM; with A549 it was > 100 µM (inactive). In addition, the GI50 with NCI-H460, with MOLT-4, in the assay on LOX IMVI, with HOP-92, in the assay with A498 and with IGROV-1 was > 100 µM (inactive) in each case. Moreover, the GI50 in the assay with SNB-19, with SNB-75 and with HCC 2998 was > 100 µM (inactive) throughout.
`O=C(c1ccccc1)c1cc(Cl)ccc1NCn1nnc2ccccc21`: the GI50 is > 100 µM (inactive) in the assay on ACHN; 64.6 µM (inactive) in the assay with COLO 205; 47.8 µM (inactive) with SK-OV-3; 42.8 µM with HCT-15; 46 µM (inactive) with A549; 69.5 µM (inactive) in the assay on NCI-H460. The GI50 in the assay with MOLT-4 is 42.1 µM (inactive); with LOX IMVI, 73.3 µM (inactive); in the assay on HOP-92 it was 91.4 µM (inactive); in the assay on A498, 65.2 µM (inactive); in the assay with IGROV-1, > 100 µM (inactive); in the assay with SNB-19 it was > 100 µM (inactive). For the same compound, the figures for the GI50 in the assay with SNB-75 and with HCC 2998 were 35.1 µM (inactive) and 47.8 µM (inactive), respectively.
With `O=S(O)CCCSSSCCCS(=O)O`, the GI50 with ACHN, with HCT-116, in the assay with OVCAR-5, with SK-OV-3, with NCI-H460 and with MOLT-4 was > 100 µM (inactive) each time. Besides, the GI50 in the assay on LOX IMVI, in the assay on A498, with SNB-19, in the assay with SNB-75 and with HCC 2998 was > 100 µM (inactive) each time.
As for `Cc1nc(N(CCO)CCO)c2sc(=S)n(-c3ccccc3)c2n1`, the GI50 in the assay on ACHN, with HCT-116, in the assay on COLO 205, in the assay on OVCAR-5, in the assay on SK-OV-3 and with A549 was > 100 µM (inactive) each time. Also, the GI50 with NCI-H460, in the assay with MOLT-4, in the assay with HOP-92, in the assay on A498, in the assay on IGROV-1 and in the assay on SNB-19 was > 100 µM (inactive) throughout. For the same compound, the GI50 in the assay on SNB-75 is 10.8 µM (inactive); with HCC 2998 it was > 100 µM (inactive).
As for `O=C1C2c3[nH]c4ccccc4c3C3CCSCC3C2C(=O)N1c1ccccc1` (centres undefined), the GI50 in the assay with ACHN is > 100 µM (inactive); with HCT-116, > 100 µM (inactive); in the assay on COLO 205, > 100 µM (inactive); in the assay on OVCAR-5, > 100 µM (inactive); in the assay with SK-OV-3 it was > 100 µM (inactive); with HCT-15 it was over 100 µM. Besides, the GI50 in the assay with A549 was > 100 µM (inactive); in the assay with NCI-H460 it was > 100 µM (inactive); in the assay on MOLT-4 it was 87.3 µM (inactive); with LOX IMVI, > 100 µM (inactive); in the assay with HOP-92 it was > 100 µM (inactive); in the assay on A498, > 100 µM (inactive). For the same compound, the GI50 in the assay with IGROV-1 was > 100 µM (inactive); with SNB-19 it was > 100 µM (inactive); with SNB-75, 15.9 µM (inactive).
In the case of `C=C1CC(OC)(C(OC)C(=O)N[C@H]2OCO[C@H]3C2O[C@H](C[C@@H](COC)OC)C(C)(C)C3OC)O[C@H](C)[C@@H]1C` (some centres undefined), the GI50 is 0.624 µM (active) in the assay on HCT-116; 0.805 µM (active) with COLO 205; 1.42 µM (inactive) in the assay with OVCAR-5; 1.06 µM (active) in the assay with SK-OV-3; 0.8 µM with HCT-15; 0.693 µM (active) with A549. The GI50 in the assay on NCI-H460 was 0.746 µM (active); with MOLT-4 it was 0.522 µM (active); with LOX IMVI, 0.617 µM (active); in the assay on HOP-92 it was 0.521 µM (active); in the assay with A498, 1.03 µM (active); in the assay on IGROV-1 it was 1.17 µM (inactive). Further, the GI50 with SNB-19 is 0.611 µM (active); in the assay on SNB-75, 1.21 µM (inactive).
As to `C=C(/C=C/C=C(/CCC=C(C)C)COC(C)=O)[C@@H]1CC[C@]2([C@H](CCCO)/C(=C(/C)C=O)CC[C@]2(C)O)[C@@H]1O`, the GI50 with ACHN is 11.5 µM (inactive); in the assay with HCT-116, 19.5 µM (inactive); in the assay on COLO 205 it was 0.558 µM (active); in the assay on OVCAR-5, 39 µM (inactive); with SK-OV-3, 29.1 µM (inactive); in the assay with HCT-15, 14.5 µM. Also, the GI50 in the assay on A549 was 3.27 µM (inactive); with NCI-H460, 0.414 µM (active); with MOLT-4, 9.29 µM (inactive); in the assay on LOX IMVI, 10.4 µM (inactive); in the assay with HOP-92, < 0.01 µM (active); in the assay on IGROV-1, 17.2 µM (inactive). For the same compound, the GI50 with SNB-19 is 16.1 µM (inactive); in the assay with SNB-75, > 10 µM (inactive); in the assay on HCC 2998, 7.4 µM (inactive).
As to `CC12CCC3C(CCC4CC(OC(=O)Cc5ccc(N(CCCl)CCCl)cc5)CCC43C)C1CCC(=O)N2` (centres undefined), the GI50 with ACHN is 11.2 µM (inactive); in the assay with HCT-116, 15.1 µM (inactive); with COLO 205 it was 17.3 µM (inactive); with SK-OV-3 it was 18 µM (inactive); in the assay on HCT-15, 14.7 µM; in the assay with A549, 15.5 µM (inactive). For the same compound, the GI50 with NCI-H460 is 7.26 µM (inactive); in the assay with MOLT-4 it was 7.41 µM (inactive); with HOP-92, 16.1 µM (inactive); with A498 it was 16.8 µM (inactive); with IGROV-1, 16.2 µM (inactive); in the assay on SNB-19, 18.3 µM (inactive). Also, the GI50 in the assay with SNB-75 is 15 µM (inactive); with HCC 2998, 18.9 µM (inactive).
As to `Cc1nc2c(nc1Cl)nc(Oc1ccc(Cl)cc1)c1ccccc12`, the GI50 in the assay on ACHN was 39.5 µM (inactive); in the assay with HCT-116, 41.7 µM (inactive); in the assay on COLO 205, > 100 µM (inactive); in the assay on OVCAR-5 it was > 100 µM (inactive); in the assay on SK-OV-3 it was > 100 µM (inactive); with HCT-15 it was over 100 µM. The GI50 with A549 was 34.6 µM (inactive); with NCI-H460, 62.4 µM (inactive); in the assay on MOLT-4 it was > 100 µM (inactive); in the assay on LOX IMVI it was 59.6 µM (inactive); with IGROV-1, 55.7 µM (inactive); with SNB-19, 82.8 µM (inactive). Moreover, the GI50 in the assay on SNB-75 is 26.7 µM (inactive); in the assay on HCC 2998, > 100 µM (inactive).
For `CN(C)CCCn1c(-c2ccc(Br)cc2)cs/c1=N\c1ccccc1`, the GI50 with ACHN was 16.8 µM (inactive); in the assay with OVCAR-5, 16.5 µM (inactive); in the assay on PC-3, 11.2 µM (inactive); with SK-OV-3, 18.3 µM (inactive); in the assay with HCT-15, 21.1 µM; with A549, 17.5 µM (inactive). Further, the GI50 with NCI-H460 is 12.2 µM (inactive); in the assay with MOLT-4, 15.4 µM (inactive); in the assay with HOP-92, 15.2 µM (inactive); in the assay with A498, 8.75 µM (inactive); in the assay on MDA-MB-231, 15.1 µM (inactive); in the assay on SNB-19 it was 14.5 µM (inactive). The GI50 was 15.8 µM (inactive) with SNB-75 and 5.38 µM (inactive) in the assay on HCC 2998.

Source of the values: ChEMBL document CHEMBL1201862, “PubChem BioAssay data set” (2004).
